The values below come from US9982011B2, “Legumain activated doxorubicin derivative as well as preparation method and application thereof” (priority 2012, dated 2018).

Molecules are shown by their SMILES. Entries after “also recorded” stand apart in the source; their conditions may differ. Where a name gives a salt, the structure may show the parent alone. Starred links: 1 amine or outer side, 2 acyl side, 3 side chain; linkers in the order of their positions; H or OH if unused. Residues, ends and D or L forms follow the SMILES beside them. *: point of attachment. Doxorubicin(3'-N) = COc1cccc2c1C(=O)c1c(O)c3c(c(O)c1C2=O)C[C@@](O)(C(=O)CO)C[C@@H]3O[C@H]1C[C@H](N*)[C@H](O)[C@H](C)O1; Suc = O=C(CCC(=O)[*:2])[*:1]

A short description of data set [1]: Maximum tolerated dose (MTD) / acute toxicity of a single injection in mice. The note with it: female, BALB/C, mouse, in vivo. The source says: (§1) Test purpose: to investigate the acute toxicity of the subject new drug formulation via MTD assay by intravenous administration to mice.
(§2) Test drug: S1 and S2 injections, diluted to the corresponding concentrations with physiological saline when tested.
(§3) Animal: the first class BALB/C mice, weighing 19-21 g and all mice being female.
(§4) Method and results: 36 female BALB/C mice weighing 19-21 g were randomly divided into 6 groups according to their body weights, with 6 mice in each group. […] Control tests were performed by injecting 0.2 ml physiological saline or doxorubicin hydrochloride. […] Blood samples were taken on the 3, 5 and 14 days for counting the whole blood cells. Animals were anatomized on day 14 to take the heart, liver, kidney, lung, spleen, and pancreas for HE staining.
(§5) The MTD for intravenous administration of a test drug is an important reference index for drug toxicity.

The next data set concerns BALB/C mice. Described as above.
Text: as §1, §2, §3, §4, §5

A further data set relates to 4T1 cells. Put plainly: Efficacy in 4T1 tumor metastasis (lung) model in BALB/C mice. In kind it is in vivo. The source says:
Test purpose: to investigate the anti-tumor efficacy of S1 and S2 in a tumor metastasis treatment model from BALB/C mice.
Test drug: S1 and S2 injections, and doxorubicin hydrochloride injection, diluted to corresponding concentrations with physiological saline when testing.
1. Animal: BALB/C mice of 6-8 weeks old, all female.
1) 4T1 cells were purchased from American type culture collection (ATCC) and identified according the specification provided by ATCC. Cells were cultivated in DMEM culture medium containing 10% fetal bovine serum at 37° C. and 5% CO2. The cells were passaged for every three days and cells within the 15th passage were used.
2) Production of tumor metastasis. 10^6 […] were subcutaneously injected to the back of the BALB/C mice. Mice were randomly grouped after the tumor grew to about 1.5 cm. The subcutaneous tumor was removed by surgery and drug treatment began. Mice were killed after anesthesia on day 27. The whole lung was taken out and put into Bouin's solution for staining. The number of the tumor metastasized to lung was counted with anatomical microscope.
3) Course of treatment. According to the clinical application of S1 and S2, drugs were intraperitoneally injected. A dose of 10 μmol/kg (<1/10 MTD) was used for the S1 treatment group, 10 μmol/kg (<1/10 MTD) for the S2 treatment group, and 3 μmol/kg (>1/2 MTD) for doxorubicin hydrochloride. The control group was administered with physiological saline. The drugs were administered daily for 8 days.

The test system of the next data set is MDA-MB231 cells. Put plainly: Efficacy in MDA-MB231 tumor model in nude mice. In kind it is in vivo. The source says: Test purpose: to investigate the anti-tumor efficacy of S1 and S2 via mouse tumor treatment model.
Test drug: S1 and S2 injections, and doxorubicin hydrochloride injection, diluted to corresponding concentrations by physiological saline when testing.
1. Animal: nude mice of 6-8 weeks old, all female.
1) MDA-MB231 cells were purchased from American type culture collection (ATCC) and identified according the specification provided by ATCC.
2) Production of tumor. […] Mice were randomly grouped after the diameter of the tumor reached about 0.3 cm to 0.4 cm. Then treatment began.
According to the clinical application of S1 and S2, drugs were intraperitoneally injected. A dose of 30 mg/kg (<1/2 MTD) was used for the S1 treatment group, 30 mg/kg (<1/2 MTD) for the S2 treatment group, and 4 mg/kg (>1/2 MTD) for doxorubicin hydrochloride. The control group was administered with physiological saline. The drugs were administered twice weekly for three weeks.

Data set [2] in a line: Metabolic half-life in mice blood.
In a further data set the target is serum albumin (Mus musculus, UniProt P07724). The conditions noted are these: blood taken 10 minutes after intravenous tail injection.
A further data set deals with Cathepsin B (Homo sapiens, UniProt P07858). Put plainly: In vitro binding to cathepsin absorbed on a 96-well plate (fluorescence of bound drug). The note with it: FIG. 1. The text has this: The R6 group allows the drug to be able to target cathepsin (Cathepsin B) in the tumor microenvironment and inhibit the activity of cathepsin necessary for tumor growth, development and metastasis. […] The R6 group also allows the drug to have an additional function of targeting tumor, thus the drug has two targeted effects.
The test method was described as follows. Cathepsin was absorbed on a 96-well plate and blocked with BSA. Succinyl-AANL-DOX (SEQ ID NO: 2), S1 and a mixture of S1 and E-64 (an inhibitor for specific binding of cathepsin) were added to allow them to bind to the cathepsin on the 96-well plate. The unbound drugs were removed and the fluorescence of the bound drug was detected.

Where [3] appears, read: 10 mg/kg, single injection, 6 female BALB/C mice.
The mark [4] stands for this setting: lung, day 27, i.p. daily for 8 days, S1, S2 10 μmol/kg, doxorubicin hydrochloride 3 μmol/kg.

serum albumin, sequence (P07724 25-608): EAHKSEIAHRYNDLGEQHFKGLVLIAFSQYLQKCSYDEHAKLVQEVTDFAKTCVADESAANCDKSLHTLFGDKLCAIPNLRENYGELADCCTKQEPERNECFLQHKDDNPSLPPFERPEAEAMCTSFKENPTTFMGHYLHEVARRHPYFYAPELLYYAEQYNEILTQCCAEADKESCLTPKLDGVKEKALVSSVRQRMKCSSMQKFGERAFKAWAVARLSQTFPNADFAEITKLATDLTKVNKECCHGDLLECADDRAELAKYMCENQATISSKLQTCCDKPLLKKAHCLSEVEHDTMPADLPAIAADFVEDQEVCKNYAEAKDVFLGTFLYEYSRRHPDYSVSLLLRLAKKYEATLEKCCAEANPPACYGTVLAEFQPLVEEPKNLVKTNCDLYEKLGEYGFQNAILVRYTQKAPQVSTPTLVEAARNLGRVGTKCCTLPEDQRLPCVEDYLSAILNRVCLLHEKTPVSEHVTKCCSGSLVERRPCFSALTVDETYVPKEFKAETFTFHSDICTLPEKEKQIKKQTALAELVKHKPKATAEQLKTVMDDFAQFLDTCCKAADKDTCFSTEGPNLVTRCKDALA
Experimental for serum albumin: Bloods were taken after 10 minutes and centrifuged to obtain serum. The proteins in the serum were precipitated by 70% ethanol.

Consider `COc1cccc2c1C(=O)c1c(O)c3c(c(O)c1C2=O)C[C@@](O)(C(=O)CO)C[C@@H]3O[C@H]1C[C@H](N)[C@H](O)[C@H](C)O1` [doxorubicin hydrochloride, reference compound], for which the maximum tolerated dose (MTD) (in general, the highest dose tested that stayed within the study's limit of toxicity) at 17 days in data set [1] fell in the range of 4 to 8 µmol/kg. Also, in the data set on BALB/C mice (setting [3]), the “Mortality rate (%)” value is 100% and the “Number of dead animal” value worked out at 6. In addition, the MDA-MB231 with BALB/C mice (Table 4, toxicity by the method of Test Example 1) is on record as 7 mg/kg. Besides, in the data set with 4T1 cells (setting [4]), the “Inhibitory rate on metastasis” value stood at 31.4% and the “Number of metastasized tumor” value came out at 98 ± 18. In the data set on 4T1 cells (same method as Test Example 3), this compound had a Metastasis-inhibitory rate of 31.4%. Besides, in the data set with MDA-MB231 cells (20 days, i.p. twice weekly for three weeks, S1, S2 30 mg/kg, doxorubicin hydrochloride 4 mg/kg), the “Inhibitory rate of tumor, 20 days” value is 7.4%. Besides, the “Size of tumor (mm^3), 20 days” value in the data set with MDA-MB231 cells (20 days, i.p. twice weekly for three weeks, S1, S2 30 mg/kg, doxorubicin hydrochloride 4 mg/kg, nude mice) stood at 358.7 ± 39.7 mm^3. In the data set on MDA-MB231 cells (38 days, i.p. twice weekly for three weeks, S1, S2 30 mg/kg, doxorubicin hydrochloride 4 mg/kg), the “Inhibitory rate of tumor, 38 days” value was determined as 29.1%. Moreover, in the data set with MDA-MB231 cells (38 days, i.p. twice weekly for three weeks, S1, S2 30 mg/kg, doxorubicin hydrochloride 4 mg/kg, nude mice), the “Size of tumor (mm^3), 38 days” value is listed as 881.2 ± 86.5 mm^3. For the same compound, in the data set with MDA-MB231 cells (day 38, same method as Test Example 2), the “Tumor-inhibitory rate (day 38)” value was 29.1%.
Regarding `COc1cccc2c1C(=O)c1c(O)c3c(c(O)c1C2=O)C[C@@](O)(C(=O)CO)C[C@@H]3O[C@@H]1C[C@H](NC(=O)[C@H](CC(C)C)NC(=O)[C@H](CC(N)=O)NC(=O)[C@H](C)NC(=O)[C@H](C)NC(=O)OC(C)(C)C)[C@H](O)[C@H](C)O1` [BOC-AANL-DOX], the “Metabolic half-life in the mice blood” value in data set [2] was found to be 0.7 h.
In the case of `COc1cccc2c1C(=O)c1c(O)c3c(c(O)c1C2=O)C[C@@](O)(C(=O)CO)C[C@@H]3O[C@H]1C[C@H](NC(=O)[C@H](CC(C)C)NC(=O)[C@H](CC(N)=O)NC(=O)[C@H](C)NC(=O)[C@H](C)NC(=O)CCC(=O)O)[C@H](O)[C@H](C)O1` [Succinyl-AANL-DOX, reference compound] (Suc-AANL-{Doxorubicin(3'-N)}), the “Binding to serum albumin / plasma protein in blood” value at serum albumin was “did not bind to serum albumin in the blood plasma”. Moreover, the Binding to cathepsin result on Cathepsin B (cathepsin absorbed on 96-well plate, blocked with BSA) was “did not bind to absorbed cathepsin”. In addition, the “Metabolic half-life in the mice blood” value in data set [2] was determined as 37 h.
Regarding `CC(C)C[C@H](NC(=O)[C@H]1O[C@@H]1C(=O)O)C(=O)NCCCCN=C(N)N` [Example E-64, E-64, reference compound], on Cathepsin B (mixture of S1 and E-64), the “Competitive inhibition of the binding of S1 to cathepsin” value is listed as “could competitively inhibit the binding of S1; also recorded: binding can be inhibited by cathepsin inhibitor E-64”.
